For this assay, the system named is M. tuberculosis H37Rv growth inhibition, 7H9 media. In words: M. tuberculosis growth inhibition, HTS (AID 449762).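 As to all read-outs here: bacterial growth assessed after seven days of incubation.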 The following applies: for IC90: measured here: IC90 growth inhibition.

Results filed as inconclusive are left out.

For the compound `O=c1cc(O)c2sc3nc(-c4cccnc4)cc(C(F)(F)F)c3c2[nH]1`, the IC50 was 15.6 µM and the IC90 was determined as 35.6 µM.

Regarding `Cc1cc(C(=O)CCl)c(C)n1CCc1ccc(Cl)cc1`, the IC50 is 0.34 µM and the IC90 was determined as 2.18 µM. Regarding `COC(=O)c1ccc(N/C(C)=C/C(=O)c2ccc(C)o2)cc1`, the IC50 was 97.4 µM and the IC90 is more than 100 µM. Take `Cc1ccc(OCc2cc(C(=O)N(C)Cc3cnc4ccccn34)no2)cc1C`: the IC50 was 19.6 µM and the IC90 worked out at 32 µM.

On to `CN1CCN2c3ccccc3Cc3ccccc3C2C1` (configuration not stated), for which the IC50 was 42.8 µM and the IC90 is more than 100 µM.

On to `COc1cc2nc(Nc3ccc(C)c(Cl)c3)nc(N)c2cc1OC`, for which the IC50 was 33.2 µM and the IC90 is 98.8 µM.

For `CC(C)Cc1nc2oc3c(N4CCN(CCO)CC4)ncnc3c2c2c1CCCC2`, the IC50 is 18.3 µM and the IC90 stood at 26.1 µM. On to `O=C(CCl)c1ccc2c(c1)CCN2C(=O)C1CCCCC1`, for which the IC50 is 16.7 µM and the IC90 was more than 100 µM. As to `O=[N+]([O-])c1ccc(Sc2cc[n+]([O-])c3ccccc23)c([N+](=O)[O-])c1`, the half-maximal inhibitory concentration (IC50) is 16.1 µM and the IC90 was 24.3 µM.

For the compound `Clc1ccc(-c2cc3ccccc3nc2N2CCCC2)cc1`, the IC50 is 69.2 µM and the IC90 was more than 100 µM. For `Cc1ccc(C)c(N2CCN(C(=S)Nc3ccc4nc(N5CCN(C)CC5)cc(C)c4c3)CC2)c1` the same measures were 38.7 µM and 50.9 µM. The like results for `COc1ccc(-c2oc3ccc(-c4ccc(OC)nc4)cc3c2C#CC2(O)CCCCC2)cc1` were, in that order, 96.2 µM and more than 100 µM. Consider `Cc1cccc(/C=C/c2onc(C)c2[N+](=O)[O-])n1`, for which the IC50 is 10.9 µM and the IC90 was found to be 19.1 µM. `Cc1ccc(/C=N/NC(=S)NC(C)C)o1`: the half-inhibitory concentration (IC50) is 42.4 µM and the IC90 was determined as 47.9 µM. As for `O=Nc1c2nc3ccccc3n(O)c-2c2ccccc12`, the IC50 is 10.7 µM and the IC90 was 15.7 µM. For `COc1cccc2sc(Nc3nnc(-c4cccs4)o3)nc12` the same measures were 23.9 µM and 27.1 µM.

For `Oc1ccc(/C=N/n2c3ccccc3c3ccccc32)cc1`, the IC90 was more than 100 µM.

As to `C/C(=N\NC(=S)Nc1cccc(C)c1)c1cccc(N)c1`, the IC50 is 25.8 µM and the IC90 was 30.4 µM. Consider `COCC(=O)O[C@]1(CCN(C)CCCc2nc3ccccc3[nH]2)CCc2cc(F)ccc2[C@@H]1C(C)C`, for which the IC50 was 32.2 µM and the IC90 was found to be 42.6 µM. For `CN1/C(=C\C(=O)C[n+]2ccc(C(=O)c3ccccc3)cc2)C(C)(C)c2ccccc21` the same measures were 7.85 µM and 15.3 µM. For `CCc1c(C)sc(NC(=S)N2CCN(CC)CC2)c1C(=O)OC` the same measures were 12.7 µM and more than 100 µM. Take `COc1ccccc1C1CC(c2c(-c3ccccc3)c3cc(Cl)ccc3[nH]c2=O)=NN1S(C)(=O)=O` (configuration not stated): the IC50 was 93.7 µM and the IC90 was more than 100 µM. For `C[Se]C[C@@H](N)C(=O)O` the same measures were 51 µM and 69.6 µM.

As for `COCc1cc(=O)[nH]c(Nc2nc3ccccc3o2)n1`, the IC50 was 1.6 µM and the IC90 stood at 7.06 µM. On to `O=c1oc2ccccc2c(O)c1/C=C1\C=Nc2ccccc21`, for which the 50% inhibitory concentration (IC50) was 16.6 µM and the IC90 stood at 39.8 µM.

`CN(C(=O)COC(=O)c1ccc([N+](=O)[O-])cc1Cl)C1CCCCC1`: the IC50 is 12.8 µM and the IC90 worked out at 65.6 µM. The like results for `O=S(=O)(Nc1ccc2[nH]ncc2c1)c1ccccc1Cl` were, in that order, 11.6 µM and 19.5 µM. On to `CCc1ccc(-c2cc(C)no2)cc1S(=O)(=O)NCCCN1CCN(c2ccccc2)CC1`, for which the IC50 is 34.7 µM and the IC90 came out at 44.7 µM. As to `COCCCN=C1NN=C(c2cc(C)n(Cc3ccco3)c2C)CS1`, the IC50 was 60.9 µM and the IC90 stood at 87.4 µM. The like results for `O=C(c1ccc(CNc2c(N3CCCC3)c(=O)c2=O)cc1)N1CC=C(c2ccccc2)CC1` were, in that order, 0.76 µM and 0.87 µM. As to `Cc1ccc(NC(=O)CNCc2cccs2)cc1Br`, the IC50 is 99.6 µM and the IC90 is more than 100 µM. Consider `COc1cc(C2c3cc4c(cc3C(OC3OC5COC(c6cccs6)OC5C(O)C3O)C3COC(=O)C23)OCO4)cc(OC)c1O` (configuration not stated), for which the IC50 was 13.1 µM and the IC90 worked out at 29.5 µM. With `Cc1ccc(C(=O)ONc2ccc(N=O)cc2)cc1`, the IC50 was 23.2 µM and the IC90 is 43.1 µM. Turning to `CN(C)c1ccc(-c2cc(O)c3ncccc3c2)cc1`, the IC50 was 2.55 µM and the IC90 amounted to 4.17 µM. Turning to `O=C(N/N=C\C=C\c1ccc([N+](=O)[O-])o1)c1cccs1`, the IC50 is 0.59 µM and the IC90 came to 0.92 µM. Turning to `O=C(NNc1nc(-c2ccccc2)cs1)c1ccccc1`, the IC50 is 7.6 µM and the IC90 was more than 100 µM. As for `CN1C(C(=O)NCc2ccc(OC(F)(F)F)cc2)CC2Cn3c(nc4cc(Cl)c(Cl)cc43)C21` (configuration not stated), the IC50 is 39.8 µM and the IC90 came to 55.6 µM. For the compound `CCOc1ncccc1C(=O)OCC(=O)N1CCc2ccccc21`, the IC50 was 6.15 µM and the IC90 amounted to 15.4 µM.

Turning to `N#CC(C#N)=C(N)CSc1cccc[n+]1[O-]`, the IC50 is 6.25 µM and the IC90 amounted to 11 µM. The like results for `CCOc1cc(NC(=O)CCl)c(OCC)cc1NC(C)=O` were, in that order, less than 0.2 µM and 5.99 µM. The like results for `CC1CCN(c2nc(Cl)nc(Nc3ccc([N+](=O)[O-])cc3)n2)CC1` were, in that order, 79.8 µM and more than 100 µM. For the compound `Cn1c(N)c(C(=O)COC(=O)c2ccc([N+](=O)[O-])o2)c(=O)n(C)c1=O`, the IC50 is 2.81 µM and the IC90 came to 4.54 µM. `Nc1nnnn1/N=C/C(Br)=C/c1ccccc1`: the IC50 was 1.08 µM and the IC90 was 8.66 µM. As to `CO[C@@]12[C@H](COC(N)=O)C3=C(C(=O)C(C)=C(N)C3=O)N1C[C@@H]1N[C@@H]12`, the IC50 is 39.6 µM and the IC90 came to 69.5 µM. `CCCN(CCC)CCNC(=O)c1cc2c(-c3ccc(Cl)cc3)nn(C)c2s1`: the IC50 is 19.5 µM and the IC90 is 27.7 µM. As to `CCN1CCN(Cc2ccc(NC(=O)c3cc(NC(=O)c4cncc(-c5cccs5)c4)cc(OC)c3)cc2C(F)(F)F)CC1`, the IC50 was 10.2 µM and the concentration for an effect of 90% (IC90) turned out to be 14.6 µM.

As for `Cc1cc(NC(=O)c2sccc2C)n(-c2nc3ccccc3[nH]2)n1`, the IC50 was 2.94 µM and the IC90 is more than 100 µM. The like results for `COc1ccc(-c2c(C#Cc3ccsc3)c3ccccc3n2C)cc1` were, in that order, 25.5 µM and 37.8 µM.

As for `O=c1[nH]c(CN2CC=C(c3ccccc3)CC2)nc2cc(C(F)(F)F)ccc12`, the IC50 was 69.4 µM and the IC90 was determined as 86 µM. Take `Cc1ccc(-n2c(Cl)c(Cl)nc(Cl)c2=O)cc1`: the IC50 is 5.97 µM and the IC90 turned out to be 18.3 µM. Consider `COc1cccc(NC(=O)CNC(=O)Cn2cnc3sc4c(c3c2=O)CCCC4)c1`, for which the IC50 was 36.6 µM and the IC90 is more than 100 µM.

Take `Cc1cc(Nc2cc(Cl)nc(Sc3ccc(NC(=O)C4CC4)cc3)n2)n[nH]1`: the IC50 is 26.2 µM and the IC90 came out at 45.1 µM. The like results for `O=c1[nH]c(=O)n(Cc2ccccc2)c2nc(-c3ccc(Oc4ccc(F)cc4)c([N+](=O)[O-])c3)n(CCO)c12` were, in that order, 24.4 µM and more than 100 µM. As for `O=C(CCN1C(=O)/C(=C/c2ccccc2Cl)SC1=S)N1CCCC1`, the IC50 was 9.76 µM and the IC90 was more than 25 µM. For `Cc1ccc(CN2C3CCCC2CC(NC(=S)NCc2ccccc2)C3)cc1` (configuration not stated), the IC50 is 45.8 µM and the IC90 is 52.4 µM. The like results for `O=C(CSc1nn(-c2ccc(F)cc2)c(=S)s1)NCC1CCCO1` (configuration not stated) were, in that order, 6.13 µM and more than 100 µM.

For the compound `Cc1nc2ccccc2c2nc3ccccc3n12`, the IC50 was 33.8 µM and the IC90 amounted to 55.2 µM. With `CCOC(=O)CN(C#N)c1nc(N(C)C)nc(N(C)C)n1`, the IC50 was 11.1 µM and the IC90 was found to be 12.5 µM. For `Cc1ccc2nc3c(cc(C(=O)NCc4ccco4)c(=N)n3Cc3ccco3)c(=O)n2c1`, the IC50 is 31.9 µM and the IC90 is more than 100 µM. Consider `CCCCN(C)S(=O)(=O)c1ccc(C(=O)Nc2nnc(-c3ccco3)o2)cc1`, for which the IC50 is 8.02 µM and the IC90 was found to be 21.2 µM. The like results for `CCCOc1ccc(N2CC(C(=O)Nc3ccccn3)CC2=O)cc1` (configuration not stated) were, in that order, 16.3 µM and 59.1 µM. For the compound `CC1CCCCC1NC(=O)c1ccc2c(c1)[nH]c(=O)n2C1CCCC1` (configuration not stated), the IC50 was 5.15 µM and the IC90 was determined as 8.42 µM. Take `CCc1c(C)sc2nc3c(C(=O)N4CCOCC4)cc(C(=O)c4cc(F)ccc4O)cn3c(=O)c12`: the IC50 is 47.3 µM and the IC90 is more than 100 µM. As to `COC(=O)C1=C(C)NC(=O)/C1=C\c1cc(C)n(-c2cccc(C)c2)c1C`, the IC90 was more than 100 µM. With `CCOC(=O)CN[C@H]1CCC2C3CC=C4C[C@@H](O)CC[C@]4(C)C3CC[C@@]21C` (some centres not stated), the IC50 is 1.41 µM and the IC90 was found to be 8.37 µM. For the compound `CC(C)(C)OC(=O)NNc1c2ccccc2nc2ccccc12`, the IC50 is 22.8 µM and the IC90 worked out at 25.7 µM.

Take `O=C(O)/C=C/C(=O)Nc1ccc(-c2ccccc2)cc1`: the IC50 was 34.3 µM and the IC90 is more than 100 µM. For `COc1ccc(NCc2nnc(SCC(=O)c3ccc(OC)cc3)o2)cc1` the same measures were 7.11 µM and 13.4 µM. For the compound `CCNc1nc(Nc2ccc(C)c(Cl)c2)c2cnn(C)c2n1`, the IC50 was 43.3 µM and the IC90 is more than 100 µM. In the case of `CCc1cc2c(=O)n(C(C)C(=O)OC3CCCCC3)cnc2s1` (configuration not stated), the IC50 was 17.8 µM and the IC90 came out at 27.8 µM.

As for `COc1ccc(C)cc1Nc1n[n+](-c2ccccc2)c(-c2c(Cl)cccc2Cl)s1`, the IC50 is 19.6 µM and the IC90 amounted to 25.9 µM.

Consider `N#Cc1c(-c2ccccc2)c(-c2ccccc2)nn(CC(=O)NNC(=O)Nc2ccc(Cl)c(Cl)c2)c1=O`, for which the IC50 is 49.2 µM and the IC90 is 55.5 µM.

The IC50 is the concentration at which inhibition is half-maximal. In general, IC90 refers to the concentration needed for an effect of 90%. Read a high IC90 as weaker potency.

These data come from PubChem BioAssay AID449762 (Southern Research Specialized Biocontainment Screening …, 2010).
